{"source": "patent US20060110790A1", "about": "“Expression system for large functional proteins” (priority 2002, published 2006)", "molecular_target": "T1, co-expressed N and C halves of ABCR (Homo sapiens, UniProt P78363)", "T1 construct": "The cDNAs coding for the N-half (amino acids 1-1325) and C-half (amino acids 1326-2273) of ABCR; made in house; host or cells: COS-1 cells, co-transfected", "T1 sequence (P78363 1-1325)": "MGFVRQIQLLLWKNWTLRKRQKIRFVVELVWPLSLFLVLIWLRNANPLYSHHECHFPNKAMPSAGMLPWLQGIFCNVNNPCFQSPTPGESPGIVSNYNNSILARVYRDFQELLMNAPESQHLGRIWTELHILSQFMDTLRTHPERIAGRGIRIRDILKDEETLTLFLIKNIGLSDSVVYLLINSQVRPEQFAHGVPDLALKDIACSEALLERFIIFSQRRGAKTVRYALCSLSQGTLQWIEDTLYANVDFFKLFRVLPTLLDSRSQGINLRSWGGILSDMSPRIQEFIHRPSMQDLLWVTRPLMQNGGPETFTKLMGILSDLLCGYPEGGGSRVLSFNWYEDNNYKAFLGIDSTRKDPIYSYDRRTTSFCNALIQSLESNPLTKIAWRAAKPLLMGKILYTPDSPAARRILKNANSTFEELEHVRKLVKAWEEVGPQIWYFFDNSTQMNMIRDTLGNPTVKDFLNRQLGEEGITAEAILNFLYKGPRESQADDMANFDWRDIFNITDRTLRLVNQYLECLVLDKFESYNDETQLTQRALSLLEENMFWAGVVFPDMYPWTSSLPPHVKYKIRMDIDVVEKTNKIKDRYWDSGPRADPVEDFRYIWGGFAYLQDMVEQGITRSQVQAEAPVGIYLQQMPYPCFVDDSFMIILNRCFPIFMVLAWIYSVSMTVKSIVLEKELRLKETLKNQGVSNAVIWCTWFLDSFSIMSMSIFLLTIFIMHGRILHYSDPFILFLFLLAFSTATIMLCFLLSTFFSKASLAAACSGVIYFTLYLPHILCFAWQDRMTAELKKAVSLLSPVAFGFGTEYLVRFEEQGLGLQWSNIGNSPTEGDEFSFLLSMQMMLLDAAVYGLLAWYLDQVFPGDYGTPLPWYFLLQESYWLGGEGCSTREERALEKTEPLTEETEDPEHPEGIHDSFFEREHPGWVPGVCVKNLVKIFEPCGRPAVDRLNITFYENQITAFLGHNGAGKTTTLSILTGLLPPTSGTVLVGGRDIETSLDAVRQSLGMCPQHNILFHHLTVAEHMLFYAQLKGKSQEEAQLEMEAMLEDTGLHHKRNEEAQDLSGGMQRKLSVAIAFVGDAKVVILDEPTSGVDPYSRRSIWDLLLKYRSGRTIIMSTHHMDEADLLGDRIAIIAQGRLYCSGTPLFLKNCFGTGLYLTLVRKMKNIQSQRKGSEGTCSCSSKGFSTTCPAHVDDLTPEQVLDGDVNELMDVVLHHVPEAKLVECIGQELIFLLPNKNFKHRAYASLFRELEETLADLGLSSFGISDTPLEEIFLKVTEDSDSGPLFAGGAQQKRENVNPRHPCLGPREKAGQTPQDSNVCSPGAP", "T1 sequence (P78363 1326-2273)": "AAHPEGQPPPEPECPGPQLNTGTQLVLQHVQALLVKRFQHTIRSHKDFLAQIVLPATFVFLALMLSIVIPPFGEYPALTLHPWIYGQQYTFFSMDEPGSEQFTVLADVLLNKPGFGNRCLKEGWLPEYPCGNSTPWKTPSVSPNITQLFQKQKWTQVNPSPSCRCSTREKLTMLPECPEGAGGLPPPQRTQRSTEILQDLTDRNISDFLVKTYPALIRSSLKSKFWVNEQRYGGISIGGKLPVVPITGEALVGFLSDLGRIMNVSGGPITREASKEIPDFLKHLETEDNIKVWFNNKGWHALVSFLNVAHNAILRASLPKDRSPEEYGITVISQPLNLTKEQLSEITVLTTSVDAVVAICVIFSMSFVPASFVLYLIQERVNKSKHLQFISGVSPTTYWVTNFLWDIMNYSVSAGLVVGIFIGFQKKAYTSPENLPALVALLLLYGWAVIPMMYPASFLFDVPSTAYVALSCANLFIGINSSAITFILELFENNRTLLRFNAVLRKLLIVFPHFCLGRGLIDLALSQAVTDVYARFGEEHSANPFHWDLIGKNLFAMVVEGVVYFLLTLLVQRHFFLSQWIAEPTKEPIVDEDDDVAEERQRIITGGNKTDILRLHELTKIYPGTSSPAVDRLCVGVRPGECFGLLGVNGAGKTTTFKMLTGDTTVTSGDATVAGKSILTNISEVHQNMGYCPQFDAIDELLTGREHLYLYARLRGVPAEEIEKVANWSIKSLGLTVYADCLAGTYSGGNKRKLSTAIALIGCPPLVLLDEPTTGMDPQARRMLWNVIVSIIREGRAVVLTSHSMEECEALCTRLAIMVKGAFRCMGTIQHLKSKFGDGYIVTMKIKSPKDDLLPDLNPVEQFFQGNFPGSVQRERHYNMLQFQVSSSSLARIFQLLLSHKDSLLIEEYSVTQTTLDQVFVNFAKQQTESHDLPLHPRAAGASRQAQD", "assay": "Retinal-stimulated ATPase activity of purified protein reconstituted in lipid vesicles", "format": "biochemical", "settings": "expressed in COS-1 cells, purified on Rim 3F4 column, 50 μM [α32P]ATP", "experimental": "Membranes (from two 10 cm dishes) were solubilized in 0.5 ml of 1% Triton-X100 in Buffer A (140 mM NaCl, 20 mM Tris-HCl, pH 7.4) for 20 min on ice. For ATPase assays, the membrane preparation step was omitted and the cell suspension was solubilized directly in Buffer B (10 mg/ml soybean phospholipids, 10% glycerol, 1 mM dithiothreitol, 100 mM NaCl, 3 mM MgCl2, 50 mM NaHEPES, pH 7.4) containing 18 mM CHAPS. The supernatant after a 10 min centrifugation at 40,000 rpm (TLA100.4 rotor) was mixed with 50 μl Rim3F4 Sepharose 2B for 1 h at 4° C. The beads were washed 6 times in Buffer A containing 0.2% Triton X-100 or Buffer B containing 10 mM CHAPS and eluted with 4% SDS (for electrophoresis) or 0.2 mg/ml Rim3F4 peptide (for reconstitution and determination of ATPase activity). Purified protein (24 μl) was incubated with 6 μl of 50 mg/ml lipid (1:1 mixture of dioleoylphosphatidylethanolamine and brain polar lipid, by weight) and 3 μl n-octylglucoside for 30 min on ice. The mixture was diluted rapidly with 200 μl of Buffer C (1 mM dithiothreitol, 140 mM NaCl, 25 mM NaHEPES, pH 7.4) and passed through a 200 μl Extracti-gel column (Pierce). The flow-through containing the reconstituted protein was used for determination of ATPase activity.\nATPase activity was measured as described previously (Ahn, J., Wong, J. T., and Molday, R. S. (2000) J Biol Chem 275(27), 20399-405) using 50 μM [α^32P]ATP and thin layer chromatography. The all-trans retinal concentration was determined spectrophotometrically (λ383 nm=42.88 mM^−1 cm^−1). Protein concentration was estimated from the eluate before reconstitution by laser densitometry of Coomassie blue stained gels using bovine serum albumin as a standard. […] Direct protein measurements after reconstitution by densitometry of Western blots was about half of that in the eluate. […]\nATPase Activity of Expressed N and C Halves—The basal and retinal activated ATPase activity of full-length ABCR and the N and C halves individually or co-expressed in COS-1 cells was determined after immunoaffinity purification and reconstitution into lipid vesicles. […]"}
{"smiles": "CC1=C(/C=C/C(C)=C/C=C/C(C)=C/C=O)C(C)(C)CCC1", "note": "[all-trans retinal]", "values": [{"measurement": "stimulation of ATPase activity", "result": "1-2 fold"}]}
